# Assay results reported in US20090270363A1, “2-Aryl- and 2-Heteroarylthiazolyl Compounds, Methods for Their Preparation and Use Thereof” (Wyeth, priority 2008, published 2009).
# What was measured:
# [1] = system: securin "knock out" cells F3 (Securin-/-); assay: Growth inhibition (sulforhodamine B, 5 days) of securin knock out cells F3; format: cell-based; settings: for IC50: 120 h, securin knock out F3 cells, 5 days, SRB; for Selectivity Ratio F3: IC50 HCT116 / IC50 securin KO F3
# Method: (§1) IC50 analysis was performed for selected fused bicyclic 2-aryl or 2-heteroarylthiazolyl compounds that were tested on HCT116 cells and Securin “knock out” cell lines.
# (§2) Cell Culture—HCT116 and securin “knock out” cells. HCT116 and securin “knock out” cells (D8 and F3) were grown in RPMI+5% fetal bovine serum and gentamycin. They were maintained in a humidified 37° C. incubator with 5% CO2. Since the securin “knock out” cells have active chromosomal instability, cells were used at a low passage number of 2-13 passages. At or before passage 13 a new vial of cells was thawed and used for the screen. Cell seeding—HCT116 cells and securin “knock out” cells were trypsinized and suspended in RPMI+5% FBS at a density of 27,000 cells/mL. HCT116 and securin “knock out” cells were seeded separately in wells of a 96-well plate (Falcon Cat # 35-3872) at a cell density of 4000 cells per well. Cells were seeded in 150 μL of RPMI media containing 5% FBS and gentamycin. Cell seeding was performed under aseptic conditions. Cells were allowed to attach and grow overnight in a humidified 37° C. incubator.
# (§3) Compound Dilution and Dispensation. A series of stock solutions, 10 mg/mL of fused bicyclic 2-aryl- or 2-heteroarylthiazolyl compounds to be tested, were brought to room temperature. The compounds were diluted 1:50 in RPMI+5% FBS (Highest concentration 200 μg/mL). The compounds were then serially diluted 1:3 across a deep-well titration plate resulting in final concentrations in the plate of 200, 66.7, 22.2, 7.4, 2.4, 0.8, 0.27, 0.091, 0.03, 0.01, and 0.0034 μg/mL with one well left without a compound. 50 μL of this dilution series was added to the 150 μL of cells to result in a final concentration of compound in with the cells of 50, 16.6, 5.5, 1.8, 0.6, 0.2, 0.068, 0.023, 0.0076, 0.0025, and 0.00084 μg/mL. The dilution and addition of compounds to the plates is performed using a Multimek 96 Robot (Beckman Coulter).
# (§4) Incubation and analysis. After dosing, the cells in the 96 well plates were returned to the humidified 37° C. incubator. The compounds remained on the cells for 5 days. After 5 days, the cells were fixed to the plates with the addition of 50 μL of 50% (vol/vol) Trichloro Acetic Acid ([…]). The cells were fixed at 4° C. for 1 hour. The plates were washed 5 times in distilled water and allowed to dry. The cells were stained with 0.4% sulforhodamine B (Sigma) in 1% acetic acid. The cells were stained for 15 minutes at room temperature. The plates were then washed 3 times in 1% acetic acid. The plates were dried and the dye was solubilized in 10 mM Tris at pH 8.0. The plates were read on the Absorbence 560 setting on a Victor^2 V Model 1420 Multilabel HTS counter (Perkin Elmer).
# (§5) Analysis of Results—IC50 data. Absorbence data was read off of the Victor and was converted to a percentage of the control (untreated) values. IC50 values were graphed and the point at which a 50% inhibition of the control level was determined. […] If the model was not able to determine an IC50, the IC50 was assigned to the lowest concentration that gives a 50% or greater decrease in absorbence compared to control levels. If the calculated IC50 value for a cell line exceeds the top concentration for the assay (typically 50 μg/mL), the assay was scored as >50.
# (§6) Selectivity Ratio. The Selectivity Ratio is the ratio of IC50s between the parent cell line and the knock out cell line and is always a positive number and is typically an integer.
# [2] = system: HCT116 cells (Securin+/+, securin parental, HCT116 FB); assay: Growth inhibition (sulforhodamine B, 5 days) of securin parental cells; format: cell-based; settings: Homo sapiens, HCT-116, 120 h, SRB
# Method: as §1, §2, §3, §4, §5, §6
# [3] = system: securin "knock out" cells D8 (Securin-/-); assay: Growth inhibition (sulforhodamine B, 5 days) of securin knock out cells D8; format: cell-based; settings: for IC50: 120 h, securin knock out D8 cells, 5 days, SRB; for Selectivity Ratio D8: IC50 HCT116 / IC50 securin KO D8
# Method: as §1, §2, §3, §4, §5, §6
# [4] = system: Xenografts of a Human Breast Carcinoma Cell Line (MDA-MB-361); assay: Tumor xenograft study versus Vincristine (Table 3); format: in vivo
# Method: (§7) Selected fused bicyclic 2-aryl- or 2-heteroarylthiazolyl compounds of formula I were tested for their activity in a securin parental cell line (HCT116 FB) and a securin knockout (KO) cell line. […] The in-vivo activity of selected fused bicyclic 2-aryl- or 2-heteroarylthiazolyl compounds of formula I was studied in cells growing as xenografts in athymic (nude) mice. The effect of Examples 164, 166 and 167 was studied in xenografts of a human breast carcinoma cell line (MDA-MB-361).
# (§8) In-vivo Activity in Tumor Xenografts. […] The fused bicyclic 2-arylthiazolyl compounds were formulated using 0.5% Methocel™ (methylcellulose) and 0.4% Tween 80™ (polysorbate-80 and oleic acid) and administered daily orally (PO), by gavage or by syringe. Tumor mass [(length×width^2)/2] was determined every 7 days. Inhibition of tumor growth was calculated relative to conventional (vehicle treated) controls.
# The effectiveness of Examples 164, 166 and 167 versus Vincristine at controlling tumor growth was studied and the results are summarized in Table 3 and FIG. 2.
# [5] = system: Xenografts of a Human Breast Carcinoma Cell Line (MDA-MB-361); assay: Tumor xenograft study versus Herceptin (Table 2); format: in vivo; settings: 40 mg/kg/dose PO, days 1 through 20
# Method: as §7, §8
# [6] = 0.8 mg/kg/dose IP, days 2, 5 and 10
# [7] = 100 mg/kg/dose PO, BID, days 2 through 21
# [8] = 100 mg/kg/dose PO, BID, days 2 through 21, BID vehicle group listed
# [9] = 150 mg/kg/dose PO, days 2 through 21
Structure (SMILES),IC50 [1] [µM],Selectivity Ratio F3 [1],IC50 [2] [µM],IC50 [3] [µM],Selectivity Ratio D8 [3],also measured
"CC(=O)c1c(-c2nc3c(s2)C(O)CCC3)ccc(N(C)C)c1Br (stereo not drawn) [Example 81, 1-[2-bromo-3-(dimethylamino)-6-(7-hydroxy-4,5,6,7-tetrahydro-1,3-benzothiazol-2-yl)phenyl]ethanone]",0.35,170,58.9,0.13,459,
"CCc1cc(N(C)C)ccc1-c1nc2c(s1)C(O)CCC2 (stereo not drawn) [Example 47, 2-[4-(dimethylamino)-2-ethylphenyl]-4,5,6,7-tetrahydro-1,3-benzothiazol-7-ol]",3,26,76.4,0.43,179,
"O=[N+]([O-])c1cc(N2CCCC2)ccc1-c1nc2c(s1)C(O)CCC2 (stereo not drawn) [Example 151, 2-(2-nitro-4-pyrrolidin-1-ylphenyl)-4,5,6,7-tetrahydro-1,3-benzothiazol-7-ol]",0.053,724,38,0.046,832,
"CC[C@]1(O)C[C@H]2CN(CCc3c([nH]c4ccccc34)[C@@](C(=O)OC)(c3cc4c(cc3OC)N(C=O)[C@H]3[C@@](O)(C(=O)OC)[C@H](OC(C)=O)[C@]5(CC)C=CCN6CC[C@]43[C@@H]65)C2)C1 [Vincristine, reference compound]",,,,,,"% T/C Day 8 [4, 6]: 33%; % T/C Day 15 [4, 6]: 23%; % T/C Day 22 [4, 6]: 30%; Relative Tumor Growth Day 8 [4, 6]: 1.75; Relative Tumor Growth Day 15 [4, 6]: 2.84; Relative Tumor Growth Day 22 [4, 6]: 6.71; Relative Tumor Growth Day 29 [4, 6]: 11.47"
"CN(C)c1ccc(-c2nc3c(s2)C(O)CCC3)c(C(C)(C)O)c1 (stereo not drawn) [Example 72, 2-[4-(dimethylamino)-2-(1-hydroxy-1-methylethyl)phenyl]-4,5,6,7-tetrahydro-1,3-benzothiazol-7-ol]",2,27,54,1,52,
"OC1CCCc2nc(-c3ccc(N4CCCC4)cc3)sc21 (stereo not drawn) [Example 158, 2-(4-pyrrolidin-1-yl-phenyl)-4,5,6,7-tetrahydro-benzothiazol-7-ol]",2.9,54,154,1.7,91,
"COC(=O)c1cc(N2CCCC2)ccc1-c1nc2c(s1)C(O)CCC2 (stereo not drawn) [Example 161, 2-(7-Hydroxy-4,5,6,7-tetrahydro-benzothiazol-2-yl)-5-pyrrolidin-1-yl-benzoic acid methyl ester]",0.52,128,66.3,0.4,165,
"CN(C)c1ccc(-c2nc3c(s2)C(O)CCC3)c(C(=O)OCc2cccs2)c1 (stereo not drawn) [Example 123, 2-thienylmethyl 5-(dimethylamino)-2-(7-hydroxy-4,5,6,7-tetrahydro-1,3-benzothiazol-2-yl)benzoate]",4.4,20,90,1.7,52,
COc1cc(Nc2c(C#N)cnc3cc(OCCCN4CCN(C)CC4)c(OC)cc23)c(Cl)cc1Cl [SKI-606 20],,,,,,"Relative Tumor Growth Day 8 [4, 7]: 1.97; Relative Tumor Growth Day 15 [4, 7]: 2.44; Relative Tumor Growth Day 22 [4, 7]: 3.91; Relative Tumor Growth Day 29 [4, 7]: 5.73; Relative Tumor Growth Day 36 [4, 7]: 10.26; S/T = # of Survivors/# of Treated on Day +36 [4, 7]: 8/10; % T/C Day 8 [4, 8]: 52%; % T/C Day 15 [4, 8]: 27%; % T/C Day 22 [4, 8]: 18%; % T/C Day 8 [4, 9]: 40%; % T/C Day 15 [4, 9]: 22%; % T/C Day 22 [4, 9]: 16%; Relative Tumor Growth Day 8 [4, 9]: 2.09; Relative Tumor Growth Day 15 [4, 9]: 2.77; Relative Tumor Growth Day 22 [4, 9]: 3.62; Relative Tumor Growth Day 29 [4, 9]: 7.22; Relative Tumor Growth Day 36 [4, 9]: 10.19; S/T = # of Survivors/# of Treated on Day +36 [4, 9]: 10/10"
"OCc1cc(N2CCCC2)ccc1-c1nc2c(s1)C(O)CCC2 (stereo not drawn) [Example 162, 2-(2-Hydroxymethyl-4-pyrrolidin-1-yl-phenyl)-4,5,6,7-tetrahydro-benzothiazol-7-ol]",0.046,333,15.3,0.05,304,
"COC(=O)c1cc(N(C)C)ccc1-c1nc2c(s1)C(O)CCC2 (stereo not drawn) [Example 55, methyl 5-(dimethylamino)-2-(7-hydroxy-4,5,6,7-tetrahydro-1,3-benzothiazol-2-yl)benzoate]",1.2,90,105,0.65,160,
"CN(C)c1ccc(-c2nc3c(s2)C(O)CCC3)c(C(=O)OCc2ccsc2)c1 (stereo not drawn) [Example 122, 3-thienylmethyl 5-(dimethylamino)-2-(7-hydroxy-4,5,6,7-tetrahydro-1,3-benzothiazol-2-yl)benzoate]",2.1,20,42.2,0.76,55,
"CN(C)c1ccc(-c2nc3c(s2)C(O)CCC3)c(C(=O)OCc2ccoc2)c1 (stereo not drawn) [Example 116, 3-furylmethyl 5-(dimethylamino)-2-(7-hydroxy-4,5,6,7-tetrahydro-1,3-benzothiazol-2-yl)benzoate]",0.82,104,85.2,0.59,145,
"CCCOC(=O)c1cc(N(C)C)ccc1-c1nc2c(s1)C(O)CCC2 (stereo not drawn) [Example 121, propyl 5-(dimethylamino)-2-(7-hydroxy-4,5,6,7-tetrahydro-1,3-benzothiazol-2-yl)benzoate]",1.7,44,77.3,0.69,112,
"CCOc1cc2ncc(C#N)c(Nc3ccc(OCc4ccccn4)c(Cl)c3)c2cc1NC(=O)/C=C/CN(C)C [HKI-272, reference compound]",,,,,,% T/C Day 7 [5]: 62%; % T/C Day 14 [5]: 89%; % T/C Day 21 [5]: 76%; Relative Tumor Growth Day 7 [5]: 1.19; Relative Tumor Growth Day 14 [5]: 2.86; Relative Tumor Growth Day 21 [5]: 8.03; S/T = # of Survivors/# of Treated on Day +21 [5]: 10/10
CCOc1cc2ncc(C#N)c(Nc3ccc(F)c(Cl)c3)c2cc1NC(=O)/C=C/CN(C)C [EKB-569],,,,,,% T/C Day 7 [5]: 66%; % T/C Day 14 [5]: 80%; % T/C Day 21 [5]: 78%; Relative Tumor Growth Day 7 [5]: 1.28; Relative Tumor Growth Day 14 [5]: 2.57; Relative Tumor Growth Day 21 [5]: 8.24; S/T = # of Survivors/# of Treated on Day +21 [5]: 10/10
